Measured values: patent US20120165306A1, “PYRAZINYLPYRIDINES USEFUL FOR THE TREATMENT OF PROLIFERATIVE DISEASES” (priority 2009, published 2012)
pIC50: −log10 of the molar value.

The compounds below were run against Cdk9/cyclinT1 (Homo sapiens, UniProt P50750) (assay: Cdk9/cyclinT1 kinase assay (IMAP or Alpha Screen protocol)).
Sequence of Cdk9/cyclinT1 (P50750 whole entry): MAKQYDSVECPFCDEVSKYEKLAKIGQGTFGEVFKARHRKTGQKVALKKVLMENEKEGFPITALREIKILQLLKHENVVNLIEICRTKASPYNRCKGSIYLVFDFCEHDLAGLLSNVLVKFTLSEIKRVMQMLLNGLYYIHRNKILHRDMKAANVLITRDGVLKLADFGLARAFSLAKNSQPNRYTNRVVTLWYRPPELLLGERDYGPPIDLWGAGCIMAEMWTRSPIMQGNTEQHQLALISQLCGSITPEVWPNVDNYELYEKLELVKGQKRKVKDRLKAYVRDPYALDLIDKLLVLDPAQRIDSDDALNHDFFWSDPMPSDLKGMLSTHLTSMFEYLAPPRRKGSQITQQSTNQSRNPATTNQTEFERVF
Sequence of Cdk9/cyclinT1 (O60563 whole entry partner): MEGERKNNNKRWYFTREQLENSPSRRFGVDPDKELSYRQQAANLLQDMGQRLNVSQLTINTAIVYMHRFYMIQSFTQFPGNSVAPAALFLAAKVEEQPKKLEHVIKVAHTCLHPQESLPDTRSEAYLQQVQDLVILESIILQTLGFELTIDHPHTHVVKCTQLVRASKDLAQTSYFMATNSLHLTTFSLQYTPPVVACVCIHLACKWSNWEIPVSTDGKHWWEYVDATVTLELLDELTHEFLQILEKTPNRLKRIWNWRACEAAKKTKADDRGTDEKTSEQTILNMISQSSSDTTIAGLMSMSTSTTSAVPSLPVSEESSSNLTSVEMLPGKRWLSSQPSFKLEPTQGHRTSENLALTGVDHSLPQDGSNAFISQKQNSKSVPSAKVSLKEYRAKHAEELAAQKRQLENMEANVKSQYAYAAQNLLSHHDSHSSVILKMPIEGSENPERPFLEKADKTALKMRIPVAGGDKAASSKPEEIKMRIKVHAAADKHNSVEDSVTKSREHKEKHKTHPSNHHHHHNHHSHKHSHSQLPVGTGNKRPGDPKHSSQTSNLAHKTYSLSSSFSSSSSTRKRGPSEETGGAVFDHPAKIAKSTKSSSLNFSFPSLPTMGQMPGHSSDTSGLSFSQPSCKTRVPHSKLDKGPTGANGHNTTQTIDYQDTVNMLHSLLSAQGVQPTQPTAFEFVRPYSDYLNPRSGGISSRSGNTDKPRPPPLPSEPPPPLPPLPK

Row | pIC50 | SMILES
1 | 6.57 | CC(=O)N1CCC[C@@H](C(=O)Nc2cc(-c3cncc(NCC4CCOCC4)n3)c(Cl)cn2)C1 [Example 5, (R)-1-Acetyl-piperidine-3-carboxylic acid (5-chloro-4-{6-[(tetrahydro-pyran-4-ylmethyl)-amino]-pyrazin-2-yl}-pyridin-2-yl)-amide]
2 | 6.84 | CC(C)C(=O)Nc1cc(-c2cncc(NCC3CCOCC3)n2)c(C(F)(F)F)cn1 [Example 58, N-(4-{6-[(Tetrahydro-pyran-4-ylmethyl)-amino]-pyrazin-2-yl}-5-trifluoromethyl-pyridin-2-yl)-isobutyramide]
3 | 7.82 | O=C(Nc1cc(-c2cncc(NCC3CCOCC3)n2)c(Cl)cn1)C1CCCC1 [Example 13, Cyclopentanecarboxylic acid (5-chloro-4-{6-[(tetrahydro-pyran-4-ylmethyl)-amino]-pyrazin-2-yl}-pyridin-2-yl)-amide]
4 | > 8.10 | COCC(=O)N1CCC[C@H](C(=O)Nc2cc(-c3cncc(NCC4CCOCC4)n3)c(Cl)cn2)C1 [Example 47, (S)-1-(2-Methoxy-acetyl)-piperidine-3-carboxylic acid (5-chloro-4-{6-[(tetrahydro-pyran-4-ylmethyl)-amino]-pyrazin-2-yl}-pyridin-2-yl)-amide]
5 | 7.92 | CN(CC1CCOCC1)c1cncc(-c2cc(NC(=O)[C@@H]3CCCNC3)ncc2Cl)n1 [Example 30, (R)-Piperidine-3-carboxylic acid (5-chloro-4-{6-[methyl-(tetrahydro-pyran-4-ylmethyl)-amino]-pyrazin-2-yl}-pyridin-2-yl)-amide]
6 | > 8.10 | COC(=O)N[C@@H]1CC[C@H](C(=O)Nc2cc(-c3cncc(NCC4CCOCC4)n3)c(Cl)cn2)C1 [Example 53, [(1R,3S)-3-(5-Chloro-4-{6-[(tetrahydro-pyran-4-ylmethyl)-amino]-pyrazin-2-yl}-pyridin-2-ylcarbamoyl)-cyclopentyl]-carbamic acid methyl ester]
7 | > 8.10 | O=C(Cc1cccnc1)Nc1cc(-c2cncc(NCC3CCOCC3)n2)c(Cl)cn1 [Example 57, N-(5-Chloro-4-{6-[(tetrahydro-pyran-4-ylmethyl)-amino]-pyrazin-2-yl}-pyridin-2-yl)-2-pyridin-3-yl-acetamide]
8 | 6.00 | O=C(Nc1cc(-c2cncc(NCC3CCOCC3)n2)c(C(F)(F)F)cn1)C1CCOCC1 [Example 59, Tetrahydro-pyran-4-carboxylic acid (4-{6-[(tetrahydro-pyran-4-ylmethyl)-amino]-pyrazin-2-yl}-5-trifluoromethyl-pyridin-2-yl)-amide]
9 | 7.54 | CC(=O)Nc1cc(-c2cncc(NCC3CCOCC3)n2)c(Cl)cn1 [Example 11, N-(5-Chloro-4-{6-[(tetrahydro-pyran-4-ylmethyl)-amino]-pyrazin-2-yl}-pyridin-2-yl)-acetamide]
10 | 7.92 | O=C(Nc1cc(-c2cncc(NCc3cccnc3)n2)c(Cl)cn1)[C@@H]1CCCNC1 [Example 25, (R)-Piperidine-3-carboxylic acid (5-chloro-4-{6-[(pyridin-3-ylmethyl)-amino]-pyrazin-2-yl}-pyridin-2-yl)-amide]
11 | 6.99 | CS(=O)(=O)N1CCC[C@H](C(=O)Nc2cc(-c3cncc(NCC4CCOCC4)n3)c(C(F)(F)F)cn2)C1 [Example 65, (S)-1-Methanesulfonyl-piperidine-3-carboxylic acid (4-{6-[(tetrahydro-pyran-4-ylmethyl)-amino]-pyrazin-2-yl}-5-trifluoromethyl-pyridin-2-yl)-amide]
12 | 7.82 | C[C@@H](O)CNc1cncc(-c2cc(NC(=O)[C@@H]3CCCNC3)ncc2Cl)n1 [Example 28, (R)-Piperidine-3-carboxylic acid {5-chloro-4-[6-((R)-2-hydroxy-propylamino)-pyrazin-2-yl]-pyridin-2-yl}-amide]
13 | > 8.10 | CS(=O)(=O)N[C@@H]1CC[C@@H](C(=O)Nc2cc(-c3cncc(NCC4CCOCC4)n3)c(Cl)cn2)C1 [Example 52, (1R,3R)-3-Methanesulfonylamino-cyclopentanecarboxylic acid (5-chloro-4-{6-[(tetrahydro-pyran-4-ylmethyl)-amino]-pyrazin-2-yl}-pyridin-2-yl)-amide]
14 | 6.75 | CS(=O)(=O)N1CCC[C@@H](C(=O)Nc2cc(-c3cncc(NCC4CCOCC4)n3)c(Cl)cn2)C1 [Example 4, (R)-1-Methanesulfonyl-piperidine-3-carboxylic acid (5-chloro-4-{6-[(tetrahydro-pyran-4-ylmethyl)-amino]-pyrazin-2-yl}-pyridin-2-yl)-amide]
15 | 8.10 | O=C(Nc1cc(-c2cncc(NCC3CCOCC3)n2)c(Cl)cn1)C1CCNCC1 [Example 22, Piperidine-4-carboxylic acid (5-chloro-4-{6-[(tetrahydro-pyran-4-ylmethyl)-amino]-pyrazin-2-yl}-pyridin-2-yl)-amide]
16 | 7.70 | O=C(Nc1cc(-c2cncc(NCCN3CCCC3=O)n2)c(Cl)cn1)[C@@H]1CCCNC1 [Example 32, (R)-Piperidine-3-carboxylic acid (5-chloro-4-{6-[2-(2-oxo-pyrrolidin-1-yl)-ethylamino]-pyrazin-2-yl}-pyridin-2-yl)-amide]

Row | pIC50 | SMILES
17 | 7.82 | O=C(Nc1cc(-c2cncc(NC[C@@H]3CCCO3)n2)c(Cl)cn1)[C@@H]1CCCNC1 [Example 33, (R)-Piperidine-3-carboxylic acid [5-chloro-4-(6-{[(S)-1-(tetrahydro-furan-2-yl)methyl]-amino}-pyrazin-2-yl)-pyridin-2-yl]-amide]
18 | > 8.10 | O=C(Nc1cc(-c2cncc(NCc3cncc(F)c3)n2)c(Cl)cn1)[C@@H]1CCCNC1 [Example 16, (R)-Piperidine-3-carboxylic acid (5-chloro-4-{6-[(5-fluoro-pyridin-3-ylmethyl)-amino]-pyrazin-2-yl}-pyridin-2-yl)-amide]
19 | 7.80 | CC(C)(C)OC(=O)N1CCC[C@@H](C(=O)Nc2cc(-c3cncc(NCC4CCOCC4)n3)c(Cl)cn2)C1 [Example 2, (R)-3-(5-Chloro-4-{6-[(tetrahydro-pyran-4-ylmethyl)-amino]-pyrazin-2-yl}-pyridin-2-ylcarbamoyl)-piperidine-1-carboxylic acid tert-butyl ester]
20 | > 8.10 | CN1CC(C(=O)Nc2cc(-c3cncc(NCC4CCOCC4)n3)c(Cl)cn2)CC1=O (centres unmarked) [Example 68, 1-Methyl-5-oxo-pyrrolidine-3-carboxylic acid (5-chloro-4-{6-[(tetrahydro-pyran-4-ylmethyl)-amino]-pyrazin-2-yl}-pyridin-2-yl)-amide]
21 | > 8.10 | COC(=O)N[C@H]1CC[C@@H](C(=O)Nc2cc(-c3cncc(NCC4CCOCC4)n3)c(Cl)cn2)C1 [Example 54, [(1S,3R)-3-(5-Chloro-4-{6-[(tetrahydro-pyran-4-ylmethyl)-amino]-pyrazin-2-yl}-pyridin-2-ylcarbamoyl)-cyclopentyl]-carbamic acid methyl ester]
22 | > 8.10 | N[C@H]1CC[C@@H](C(=O)Nc2cc(-c3cncc(NCC4CCOCC4)n3)c(Cl)cn2)C1 [Example 43, (1R,3S)-3-Amino-cyclopentanecarboxylic acid (5-chloro-4-{6-[(tetrahydro-pyran-4-ylmethyl)-amino]-pyrazin-2-yl}-pyridin-2-yl)-amide]
23 | > 8.10 | CCS(=O)(=O)N1CCC[C@H](C(=O)Nc2cc(-c3cncc(NCC4CCOCC4)n3)c(Cl)cn2)C1 [Example 45, (S)-1-Ethanesulfonyl-piperidine-3-carboxylic acid (5-chloro-4-{6-[(tetrahydro-pyran-4-ylmethyl)-amino]-pyrazin-2-yl}-pyridin-2-yl)-amide]
24 | > 8.10 | COC(=O)N1CCC[C@H](C(=O)Nc2cc(-c3cncc(NCC4CCOCC4)n3)c(Cl)cn2)C1 [Example 49, (S)-3-(5-Chloro-4-{6-[(tetrahydro-pyran-4-ylmethyl)-amino]-pyrazin-2-yl}-pyridin-2-ylcarbamoyl)-piperidine-1-carboxylic acid methyl ester]
25 | 6.82 | CC(=O)NCCNc1cncc(-c2cc(NC(=O)[C@@H]3CCCNC3)ncc2Cl)n1 [Example 19, (R)-Piperidine-3-carboxylic acid {4-[6-(2-acetylamino-ethylamino)-pyrazin-2-yl]-5-chloro-pyridin-2-yl}-amide]
26 | 5.85 | O=C(Nc1cc(-c2cncc(Cl)n2)c(Cl)cn1)[C@@H]1CCCNC1 [Example 38, (R)-Piperidine-3-carboxylic acid [5-chloro-4-(6-chloro-pyrazin-2-yl)-pyridin-2-yl]-amide]
27 | 7.14 | Cc1cnc(NC(=O)C(C)C)cc1-c1cncc(NCC2CCOCC2)n1 [Example 60, N-(5-Methyl-4-{6-[(tetrahydro-pyran-4-ylmethyl)-amino]-pyrazin-2-yl}-pyridin-2-yl)-isobutyramide]
28 | 7.96 | O=C(Nc1cc(-c2cncc(NCC3CCCCO3)n2)c(Cl)cn1)[C@@H]1CCCNC1 (stereo partly drawn) [Example 34, (R)-Piperidine-3-carboxylic acid (5-chloro-4-{6-[(tetrahydro-pyran-2-ylmethyl)-amino]-pyrazin-2-yl}-pyridin-2-yl)-amide]
29 | 7.33 | O=C(Nc1cc(-c2cncc(N[C@@H]3CC34CCOCC4)n2)c(Cl)cn1)[C@@H]1CCCNC1 [Example 63, (R)-Piperidine-3-carboxylic acid (5-chloro-4-{6-[(R)-(6-oxa-spiro[2.5]oct-1-yl)amino]-pyrazin-2-yl}-pyridin-2-yl)-amide]
30 | 7.32 | O=C(Nc1cc(-c2cncc(NC3CCOCC3)n2)c(Cl)cn1)[C@@H]1CCCNC1 [Example 27, (R)-Piperidine-3-carboxylic acid {5-chloro-4-[6-(tetrahydro-pyran-4-ylamino)-pyrazin-2-yl]-pyridin-2-yl}-amide]
31 | 7.89 | O=C(Nc1cc(-c2cncc(NCC3CCOCC3)n2)c(Cl)cn1)C1CNCCO1 (centres unmarked) [Example 21, Morpholine-2-carboxylic acid (5-chloro-4-{6-[(tetrahydro-pyran-4-ylmethyl)-amino]-pyrazin-2-yl}-pyridin-2-yl)-amide]
32 | 7.40 | N[C@H]1CC[C@@H](C(=O)Nc2cc(-c3cncc(NCC4CCOCC4)n3)c(C(F)(F)F)cn2)C1 [Example 62, (1R,3S)-3-Amino-cyclopentanecarboxylic acid (4-{6-[(tetrahydro-pyran-4-ylmethyl)-amino]-pyrazin-2-yl}-5-trifluoromethyl-pyridin-2-yl)-amide]
